Laboratory results taken from patent publication US20200399222A1, “PICOLINAMIDES AS FUNGICIDES” (Dow AgroSciences LLC, priority 2018, published 2020).
Read-outs that look alike come from different tables or passages of the source.

Columns and labels:
Assay type in all cases: in vivo
Phakopsora pachyrhizi = test: Asian soybean rust (PHAKPA) disease control on soybean seedlings; details: Phakopsora pachyrhizi, High volume application at 25 ppm
How it was run: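 Compounds in acetone diluted with nine volumes of water containing 0.011% Tween 20, sprayed to run-off on two-week-old Williams 82 soybean seedlings; inoculation 3 days before or 1 day after treatment. Plants held 24 h in dark dew room at 22° C, 100% RH, then at 23° C; disease severity scored on sprayed leaves.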

Puccinia triticina = test: Wheat brown rust (PUCCRT) disease control on wheat seedlings; details: for pest or weed control at 121.5 g/ha: Low volume application; for pest or weed control at 100 ppm: High volume application
How it was run: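 Yuma wheat seedlings (first leaf emerged) sprayed to run-off with compound in acetone plus nine volumes water containing 110 ppm Triton X-100, or track-sprayed as EC formulations with 0.1% Trycol 5941. Rust spores inoculated before or after treatment; overnight dark dew, 22 °C, 100% RH, then greenhouse at 24 °C.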

Zymoseptoria tritici = test: Leaf blotch of wheat (SEPTTR) disease control on wheat seedlings; details: for pest or weed control at 121.5 g/ha: Low volume application; for pest or weed control at 100 ppm: High volume application
[1] = 24 h, 1 day protectant, read-out: PHAKPA 1DP (1 Day Protectant) disease control
[2] = 72 h, 3 day curative, read-out: PHAKPA 3DC (3 Day Curative) disease control
[3] = 24 h, 1 Day Protectant, read-out: PUCCRT disease control rating, 1DP
[4] = 72 h, 3 Day Curative, read-out: PUCCRT disease control rating, 3DC
[5] = 24 h, 1 Day Protectant, read-out: SEPTTR disease control rating, 1DP
[6] = 72 h, 3 Day Curative, read-out: SEPTTR disease control rating, 3DC

SMILES	pest or weed control at 25 ppm (Phakopsora pachyrhizi; [1]) [%]	pest or weed control at 25 ppm (Phakopsora pachyrhizi; [2]) [%]	pest or weed control at 121.5 g/ha (Puccinia triticina; [3]) [%]	pest or weed control at 121.5 g/ha (Puccinia triticina; [4]) [%]	pest or weed control at 121.5 g/ha (Zymoseptoria tritici; [5]) [%]	pest or weed control at 121.5 g/ha (Zymoseptoria tritici; [6]) [%]	pest or weed control at 100 ppm (Puccinia triticina; [3]) [%]	pest or weed control at 100 ppm (Puccinia triticina; [4]) [%]	pest or weed control at 100 ppm (Zymoseptoria tritici; [5]) [%]	pest or weed control at 100 ppm (Zymoseptoria tritici; [6]) [%]
COc1ccnc(C(=O)N[C@@H](C)C(=O)O[C@H](C)[C@H](C)C2CCCC2)c1OC(=O)C(C)C [Example 241]	< 0	< 0	< 0	< 0	< 80	< 0				
COc1ccnc(C(=O)N[C@@H](C)C(=O)O[C@@H](C)[C@@H](C)c2c(C)cccc2C)c1OC(C)=O [Example 248]	> 80	> 80	> 80	< 80	< 80	> 80				
COc1ccnc(C(=O)N[C@@H](C)C(=O)O[C@@H](C)[C@@H](C)c2ccc(F)cc2C(F)(F)F)c1OC(=O)C(C)C [Example 235]	> 80	> 80	< 80	< 80	> 80	> 80				
COc1ccnc2c(=O)n([C@@H](C)C(=O)O[C@@H](C)[C@@H](C)c3ccccc3)c(=O)oc12 [Example 261]	< 80	< 80	< 80	< 0	< 80	< 0				
COc1ccnc(C(=O)N[C@@H](C)C(=O)O[C@@H](C)[C@@H](C)c2ccc(C)cc2C)c1OC(=O)C(C)C [Example 179]	> 80	> 80	> 80	> 80	< 80	< 80				
COc1ccnc(C(=O)N[C@@H](C)C(=O)O[C@H](C)[C@H](C)c2ccc(C)cc2C)c1OC(=O)C(C)C [Example 180]	> 80	< 80	< 80	< 80	< 80	< 80				
COc1ccnc(C(=O)N[C@@H](C)C(=O)OC(C)C(C)c2c(C)cc(F)cc2C)c1OC(=O)C(C)C (stereo partly shown) [Example 244]	> 80	> 80	> 80	< 80	> 80	> 80				
COc1ccnc(C(=O)N[C@@H](C)C(=O)O[C@@H](C)[C@@H](C)c2c(C)cc(F)cc2C)c1OC(C)=O [Example 249]	> 80	> 80	> 80	> 80	> 80	> 80				
COc1ccnc(C(=O)N[C@@H](C)C(=O)OC(C)C(C)c2c(C)cccc2C)c1OC(=O)C(C)C (stereo partly shown) [Example 243]	> 80	> 80	< 80	< 80	< 80	< 80				
COc1cc[n+]([O-])c(C(=O)N[C@@H](C)C(=O)O[C@@H](C)[C@@H](C)c2ccc(F)cc2C(F)(F)F)c1O [Example 274]	< 80	< 80	< 80	< 80	< 80	< 80				
COc1ccnc(C(=O)N[C@@H](C)C(=O)O[C@@H](C)[C@H](C)c2ccccc2C)c1OCOC(C)=O [Example 231]	< 80	< 0	> 80	< 80	< 80	< 80				
COc1ccnc(C(=O)N[C@@H](C)C(=O)O[C@@H](C)[C@@H](C)c2ccccc2C)c1O [Example 175]	> 80	> 80					> 80	> 80	< 80	< 80
COc1ccnc(C(=O)N[C@@H](C)C(=O)O[C@H](C)[C@H](C)c2ccccc2C(F)(F)F)c1OC(C)=O [Example 250]	< 80	< 80	< 0	< 80	< 80	< 80				
COc1ccnc(C(=O)N[C@@H](C)C(=O)O[C@@H](C)[C@@H](C)c2ccc(F)cc2C)c1O [Example 128]		> 80					> 80	> 80	> 80	> 80
COc1cc[n+]([O-])c(C(=O)N[C@@H](C)C(=O)O[C@@H](C)[C@@H](C)c2ccccc2)c1O [Example 276]	< 0	< 80	< 80	< 80	< 80	< 80	> 80	< 80	< 80	< 80
COc1ccnc(C(=O)N[C@@H](C)C(=O)OC(C)C(C)c2c(C)cccc2C)c1OC(C)=O (stereo partly shown) [Example 255]	> 80	> 80	> 80	< 80	< 80	> 80				
COc1ccnc(C(=O)N[C@@H](C)C(=O)O[C@H](C)[C@H](C)c2ccc(F)cc2)c1OCOC(C)=O [Example 232]	< 80	< 0	> 80	< 80	< 0	< 80				
COc1ccccc1[C@H](C)[C@H](C)OC(=O)[C@H](C)NC(=O)c1nccc(OC)c1OC(C)=O [Example 257]	< 80	< 0	< 80	< 80	< 80	< 80				
COc1cc[n+]([O-])c(C(=O)N[C@@H](C)C(=O)O[C@@H](C)[C@@H](C)c2ccccc2C(F)(F)F)c1O [Example 273]	< 80	< 80	< 80	< 80	< 80	< 80				
COc1ccnc(C(=O)N[C@@H](C)C(=O)O[C@@H](C)[C@@H](C)c2ccccc2)c1OC(C)=O [Example 258]	> 80	> 80	< 80	> 80	< 80	> 80	> 80	> 80	< 80	< 80
